Test results: ChEMBL document CHEMBL3886649, “Compounds and compositions for inhibiting the activity of ABL1, ABL2 and BCR-ABL1” (2016)

Target: Tyrosine-protein kinase ABL1 (Homo sapiens, UniProt P00519)
Assay: Radiometric Filter-Binding Assay: For determination of ABL kinase activity, the radiometric filter-binding assay was used. The assay was performed by mixing 10 μL of the compound pre-diluted with 10 μL of ATP ([…] with 0.1 μCi [γ-33P]-ATP) with the phospho-acceptor peptide poly[Ala6Glu2LysHBr5Tyr1]=polyAEKY) in 20 mM Tris/HCl pH 7.5, 1 mM DTT, 10 mM MgCl2, 0.01 mM Na3VO4, 50 mM NaCl. 10 μL …

Chain of Tyrosine-protein kinase ABL1 (P00519 whole entry): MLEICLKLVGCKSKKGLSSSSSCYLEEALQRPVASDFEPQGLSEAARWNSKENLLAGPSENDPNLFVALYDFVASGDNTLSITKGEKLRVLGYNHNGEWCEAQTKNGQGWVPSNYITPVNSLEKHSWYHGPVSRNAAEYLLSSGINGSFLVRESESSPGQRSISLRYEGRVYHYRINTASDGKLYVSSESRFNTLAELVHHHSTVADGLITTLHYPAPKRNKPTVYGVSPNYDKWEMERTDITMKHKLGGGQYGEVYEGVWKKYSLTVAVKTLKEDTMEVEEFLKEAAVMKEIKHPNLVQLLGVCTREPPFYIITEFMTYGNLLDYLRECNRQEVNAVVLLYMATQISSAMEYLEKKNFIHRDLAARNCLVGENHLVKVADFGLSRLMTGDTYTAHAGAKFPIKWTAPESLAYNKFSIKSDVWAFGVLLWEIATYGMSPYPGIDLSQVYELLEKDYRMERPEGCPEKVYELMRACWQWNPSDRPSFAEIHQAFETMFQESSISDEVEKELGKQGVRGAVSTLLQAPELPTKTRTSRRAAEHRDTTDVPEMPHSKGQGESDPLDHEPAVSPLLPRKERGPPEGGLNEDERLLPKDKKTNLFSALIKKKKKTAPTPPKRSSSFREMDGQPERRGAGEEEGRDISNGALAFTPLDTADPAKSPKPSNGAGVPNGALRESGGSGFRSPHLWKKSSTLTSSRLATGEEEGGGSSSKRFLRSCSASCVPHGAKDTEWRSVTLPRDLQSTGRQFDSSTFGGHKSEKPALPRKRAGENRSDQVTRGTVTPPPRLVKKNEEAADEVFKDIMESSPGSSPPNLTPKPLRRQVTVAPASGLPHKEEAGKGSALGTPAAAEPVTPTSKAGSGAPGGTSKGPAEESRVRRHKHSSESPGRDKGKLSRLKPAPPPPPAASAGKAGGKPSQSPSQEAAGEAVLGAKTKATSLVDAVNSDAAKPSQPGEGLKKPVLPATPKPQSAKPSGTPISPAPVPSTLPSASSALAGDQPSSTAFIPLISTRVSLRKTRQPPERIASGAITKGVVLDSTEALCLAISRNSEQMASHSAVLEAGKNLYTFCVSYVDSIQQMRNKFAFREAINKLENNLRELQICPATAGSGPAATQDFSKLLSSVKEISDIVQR

IC50 | SMILES
3 nM | O=C(Nc1ccc(OC(F)(F)F)cc1)c1cnc(C2CCOCC2)c(-c2cncnc2)c1
233 nM | O=C(Nc1ccc(CC(F)(F)F)cc1)c1cccc(-c2cncnc2)c1
